Measurements published in ChEMBL document CHEMBL3217543, “Synthesis and biological activity evaluation of N-protected isatin derivatives as inhibitors of ICAM-1 expression on human endothelial cells” (Medchemcomm, 2011).

How the values were obtained:
[1] = Cytotoxicity against HUVEC assessed as cell viability at 100 uM after 24 hrs by MTT assay; assay type: cell-based; conditions: human, HUVEC cells; read-out: Activity
HUVEC [2] = test: Antiinflammatory activity in HUVEC assessed as inhibition of TNFalpha-induced ICAM1 expression at 100 uM pretreated for 2 hrs followed by TNFalpha challenge measured after 16 hrs by cell-ELISA; assay type: functional; conditions: Homo sapiens
HUVEC [3] = test: Antiinflammatory activity in HUVEC assessed as inhibition of TNFalpha-induced ICAM1 expression pretreated for 2 hrs followed by TNFalpha challenge measured after 16 hrs by cell-ELISA; assay type: functional, cell-based; conditions: Homo sapiens
HUVEC [4] = test: Antiinflammatory activity in HUVEC assessed as inhibition of LPS-induced ICAM1 expression by cell-ELISA; assay type: functional, cell-based; conditions: Homo sapiens
HUVEC [5] = test: Antiinflammatory activity in HUVEC assessed as inhibition of TNFalpha-induced ICAM1 expression at 100 uM pre-treated before TNFalpha addition by cell-ELISA; assay type: functional, cell-based; conditions: Homo sapiens, TDE = time-dependent effect
HUVEC [6] = test: Antiinflammatory activity in HUVEC assessed as inhibition of TNFalpha-induced ICAM1 expression measured after 6 hrs by FACS flow cytometry; assay type: functional, cell-based; conditions: Homo sapiens
HUVEC [7] = test: Antiinflammatory activity in HUVEC assessed as inhibition of TNFalpha-induced ICAM1 expression preincubated for 0.5 to 6 hrs followed by TNFalpha challenge measured after 4 hrs by immunostaining assay; assay type: functional, cell-based; conditions: Homo sapiens

SMILES	viability at 24 h, 100 µM [1] [%]	inhibition at 100 µM (HUVEC [2]) [%]	IC50 (HUVEC [3]) [µM]	IC50 (HUVEC [4]) [µM]	inhibition (HUVEC [2])	inhibition (HUVEC [5])	IC50 (HUVEC [6]) [µM]	IC50 (HUVEC [7]) [µM]
CCOC(=O)/C=C1/C(=O)N(C(=O)OC)c2ccc(Cl)cc21	96	77	40					
CCOC(=O)/C=C1/C(=O)Nc2ccccc21	96	40	> 100					
CCOC(=O)/C=C1/C(=O)Nc2ccc(Cl)cc21	96	56	100					
CCOC(=O)/C=C1/C(=O)N(CC(=O)OCC)c2ccc(Cl)cc21	96	74	25					
CCOC(=O)/C=C1/C(=O)N(C(=O)OCC)c2ccc(Br)cc21	98	91	15					
CCOC(=O)/C=C1/C(=O)N(C(=O)OC)c2ccc(Br)cc21	98	88	25					
CCOC(=O)/C=C1/C(=O)N(CC(=O)OC)c2ccccc21	97	58	70					
CCOC(=O)/C=C1/C(=O)N(CC(=O)OCC)c2ccccc21	98	74	55					
CCOC(=O)/C=C1/C(=O)N(CC(=O)OC)c2ccc(F)cc21	96	52	75					
CCOC(=O)/C=C1/C(=O)N(CC(=O)OC)c2ccc(Br)cc21	99	81	25					
CCOC(=O)/C=C1/C(=O)N(C(=O)OC)c2ccccc21	98	57	78					
CCOC(=O)/C=C1/C(=O)N(C(=O)OCC)c2ccc(Cl)cc21	97	83	30					
CCOC(=O)/C=C1/C(=O)N(CC(=O)OCC)c2ccc(F)cc21	97	63	40					
CCOC(=O)/C=C1/C(=O)N(CC(=O)OC)c2ccc(Cl)cc21	97	67	40					
CCOC(=O)/C=C1/C(=O)Nc2ccc(Br)cc21	97	58	100					
O=C(O)Cc1ccccc1Nc1c(Cl)cccc1Cl [DICLOFENAC]				750				
CCOC(=O)/C=C1/C(=O)N(C(=O)OC)c2ccc(F)cc21	97	61	70					
CCOC(=O)/C=C1/C(=O)N(CC(=O)OCC)c2ccc(Br)cc21	97	93	10		Dose-dependent effect	tde		
CC(=O)Oc1ccccc1C(=O)O [ASPIRIN]							5000	
CCOC(=O)/C=C1/C(=O)N(C(=O)OCC)c2ccccc21	95	66	50					
CCOC(=O)/C=C1/C(=O)N(C(=O)OCC)c2ccc(F)cc21	96	72	53					
CC(=O)N[C@@H](CS)C(=O)O [ACETYLCYSTEINE]								10000
CCOC(=O)/C=C1/C(=O)Nc2ccc(F)cc21	95	31	> 100					
